# Results reported in US11542271B2, “Fused heteroaromatic-aniline compounds for treatment of dermal disorders” (NFlection Therapeutics, Inc., priority 2017, dated 2023).
# Read-outs that look alike come from different tables or passages of the source.
# Experiments:
# [1] = S9 Stability Assay, human liver S9 fraction; format: in vitro ADME; conditions: for half-life at 1 μM / microsomal CLint at 1 μM: human liver S9 fraction, pH 7.4
# Method: Compounds were assessed for metabolic stability in human skin by assessing their rate of disappearance from human S9 skin fraction. Similarly, compounds were assessed for metabolic stability in human liver by assessing their rate of disappearance from human S9 liver fraction. The protocol below can be used to assess the difference between skin and hepatic metabolism.
# The assay was carried out in 96-well microtiter plates at 37° C. Reaction mixtures (25 μL) contained a final concentration of 1 μM test compound, 2 mg/mL liver or skin S9 protein, and 1 mM NADPH in buffer (100 mM potassium phosphate, pH 7.4 buffer with 1 mM EDTA, 3 mM MgCl2). At each of the time points (0, 15, 30, and 60 minutes), 150 μL of quench solution (100% acetonitrile with 0.1% formic acid) with internal standard was transferred to each well. Besides the zero minute controls, mixtures containing the same components except the NADPH were also prepared as the negative control. Verapamil or testosterone was included as a positive control to verify assay performance. Plates were sealed and centrifuged at 4° C. for 15 minutes at 4000 rpm. The supernatant was transferred to fresh plates for LC/MS/MS analysis.
# All samples were analyzed on LC/MS/MS using an AB Sciex API 4000 instrument, coupled to a Shimadzu LC-20AD LC Pump system. Analytical samples were separated using a Waters Atlantis T3 dC18 reverse phase HPLC column (20 mm×2.1 mm) at a flow rate of 0.5 mL/min. The mobile phase consisted of 0.1% formic acid in water (solvent A) and 0.1% formic acid in 100% acetonitrile (solvent B).
# The extent of metabolism was calculated as the disappearance of the test compound, compared to the 0-min control reaction incubations. Initial rates were calculated for the compound concentration and used to determine t1/2 values and subsequently, the intrinsic clearance, CLint=(0.693) (1/t1/2 (min)) (mL incubation/mg of S9 protein).
# HCT116 cells = experiment: HCT116 (Kras) GI50 cell-based assay (Cell Titer-Glo); conditions: Homo sapiens, HCT-116, 72 hours, read-out: Assay 3: HCT116 (Kras) GI50
# Method: (§1) Alternatively, the following procedure can be used to measure cell-based activity. Test compounds were dissolved in DMSO in 10 mM stock. Cell Titer-Glo® 2.0 Luminescent cell viability assay reagent was purchased from Promega (Madison, Wis.). A375 and HCT116 cell lines were purchased from American Type Culture Collection (Manassas, Va.). For A375 cells, cell culture media was DMEM+10% FBS. For HCT116 cells, cell culture media was McCoy's 5A+10% FBS. All media were supplemented with 100 μg/mL of penicillin, and 100 μg/mL of streptomycin. Cultures were maintained at 37° C. in a humidified atmosphere of 5% CO2 and 95% air.
# (§2) Test compounds were diluted in DMSO solution with 10-dose and 3-fold dilutions in a source plate starting at 10 mM. […] Luminescence was recorded by Envision 2104 Multilabel Reader (PerkinElmer, Santa Clara, Calif.). The number of viable cells in culture was determined based on quantitation of the ATP present in each culture well. […] Luminescence was recorded by Envision 2104 Multilabel Reader (PerkinElmer, Santa Clara, Calif.). The number of viable cells in culture was determined based on quantitation of the ATP present in each culture well. […] All parameters in the equation were calculated by GraphPad Prism 4 program. […] Accordingly, GI50 is the value of 10^X, where X was calculated by the Curve Fitting Equation when Y=50 using Excel.
# A375 cells = experiment: A375 (BRAF) GI50 cell-based assay (Cell Titer-Glo); conditions: Homo sapiens, A-375, 72 hours, read-out: Assay 2: A375 (BRAF) GI50
# Method: as §1, §2
# MAP2K1 (MEK1) = target: T1, MAP2K1 (MEK1) (Homo sapiens, UniProt Q02750); experiment: MEK Inhibition Assay (Biological Example 1b, Z'-LYTE); conditions: Biological Example 1b (compounds 1, 3, 5, 7-8); read-out: Assay 1: biochemical MEK IC50
# T1 construct: purchased ThermoFisher
# T1 sequence (Q02750 whole entry): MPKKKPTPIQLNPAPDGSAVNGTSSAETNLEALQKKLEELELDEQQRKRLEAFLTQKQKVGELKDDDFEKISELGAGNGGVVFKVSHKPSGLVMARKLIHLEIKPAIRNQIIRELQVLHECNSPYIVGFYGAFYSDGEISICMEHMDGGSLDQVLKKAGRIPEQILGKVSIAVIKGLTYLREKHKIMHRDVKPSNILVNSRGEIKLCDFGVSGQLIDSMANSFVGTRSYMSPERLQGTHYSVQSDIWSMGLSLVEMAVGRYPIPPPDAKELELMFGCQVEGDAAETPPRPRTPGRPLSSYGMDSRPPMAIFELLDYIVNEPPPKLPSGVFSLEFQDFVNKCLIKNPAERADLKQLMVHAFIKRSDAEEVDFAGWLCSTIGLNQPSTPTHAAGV
# Method: MEK1 inhibitory activity of compounds were tested using the following procedure (protocol available at thermofisher.com/content/dam/LifeTech/migration/files/drug-discovery/pdfs.par.60256.file.dat/20130430%20ssbk%20customer%20protocol%20and%20assay%20conditions.pdf). The Z′-LYTE biochemical assay (ThermoFisher) employs a fluorescence-based, coupled-enzyme format and is based on the differential sensitivity of phosphorylated and non-phosphorylated peptides to proteolytic cleavage.
# Test compounds in 100% DMSO were screened in 1% DMSO (final) in the well. For 10 point titrations, 3-fold serial dilutions are conducted from the starting concentration of 30 μM.
# After the 1 hour incubation, 5 μL of a 1:1024 dilution of Development Reagent A (available from Invitrogen, catalog no. PV3295) was added.
# ATP solutions were diluted to a 4× working concentration in Kinase Buffer (50 mM HEPES pH 7.5, 0.01% BRIJ-35, 10 mM MgCl2, 1 mM EGTA). ATP Km apparent was previously determined using a Z′-LYTE assay. The Development Reagent was diluted in Development Buffer (available from Invitrogen, catalog no. P3127).
# Assay Protocol: 2.5 μL of 4× test compound or 100 nL of 100× Test Compound plus 2.4 μL Kinase Buffer, 5 μL of the 2× Peptide/Kinase Mixture, 2.5 μL of 4×ATP Solution were added to the plates and placed on a shake plate for 30-seconds. The kinase reaction was allowed to proceed for 60-minute at room temperature, before 5 μL of Development Reagent Solution was added, and the mixture agitated for 30-seconds on a shake plate. The mixture was incubated for 60-minute at room temperature. Fluorescence was measured using a plate reader and the data were analyzed.
# This control yielded 100% cleaved peptide in the Development Reaction. The 100% Phosphorylation Control, which consisted of a synthetically phosphorylated peptide of the same sequence as the peptide substrate, was designed to allow for the calculation of percent phosphorylation. This control yielded a very low percentage of cleaved peptide in the Development Reaction. The 0% Phosphorylation and 100% Phosphorylation Controls allow for the calculation of the percent phosphorylation achieved in a specific reaction well.
# The minimum emission ratio in a screen was established by the 0% Inhibition Control, which contained active kinase. This control was designed to produce a 10-50% phosphorylated peptide in the Kinase Reaction. Cascade assays may produce up to 70% phosphorylated peptide.
# A known inhibitor control standard curve, 10 point titration, was run for each individual kinase on the same plate as the kinase to ensure the kinase was inhibited within an expected IC50 range previously determined.
# The following controls are prepared for each concentration of Test Compound assayed. […] The expected value for a non-interfering compound should be 100%. Any value outside of 90% to 110% was flagged. […] The expected value for a non-fluorescence compound should be 0%. Any value >20% was flagged.
# The data in Table A was calculated. XLfit from IDBS was used. The dose response curve was curve fit to model number 205 (sigmoidal dose-response model).
# MEK1 = target: T2, MEK1 (Homo sapiens, UniProt Q02750); experiment: MEK Inhibition Assay (Biological Example 1a, 33P-ATP, P81 filter-binding); conditions: Biological Example 1a (used for compounds 2 and 6); read-out: Assay 1: biochemical MEK IC50
# T2 construct: N-terminal His-tagged recombinant human full length protein, expressed in insect cells; His (N); purchased Invitrogen PV3303; host or cells: insect cells
# T2 sequence (Q02750 whole entry): as above
# Method: MEK1 inhibitory activity of compounds were tested using the following procedure.
# • Reaction buffer: 20 mM Hepes (pH 7.5), 10 mM MgCl2, 1 mM EGTA, 0.02% Brij35, 0.02 mg/mL bovine serum albumin, 0.1 mM Na3V04, 2 mM DTT, 1% DMSO • Enzyme: MEK1, Invitrogen cat #PV3303 • N-terminal His-tagged recombinant human full length protein, expressed in insect cells. Activated in vitro by RAF1. MW=49.2 kDa, GenBank Accession No. NP_002746. • Substrate: 5 μM ERK2 (K52R), • Kinase-dead mutant, (GenBank Accession No. NM_0011949), aa2-358 with N-terminal His6 tag, MW=43.63 kDa, expressed in E. coli.
# The substrate was prepared in freshly prepared Reaction Buffer. The kinase was delivered into the substrate solution and gently mixed. Test compounds were delivered in 100% DMSO into the kinase reaction mixture by Acoustic technology (Echo550; nanoliter range), and incubated for 20 min at room temperature. ^33P-ATP was delivered into the reaction mixture to initiate the reaction. The reaction mixture was incubated for 2 hours at room temperature. Kinase activity was detected by P81 filter-binding method.
# [2] = human liver S9, unit min printed in b472 and Table 1, not in this table, read-out: Assay 4: human liver S9 half-life
# [3] = human, read-out: Assay 5: human liver S9 intrinsic clearance value (μL/min/mg protein)
Compound,"half-life at 1 μM [1, 2] [min]","microsomal CLint at 1 μM [1, 3] [µL/min/mg]",GI50 (HCT116 cells) [nM],GI50 (A375 cells) [nM],IC50 (MAP2K1 (MEK1)) [nM],IC50 (MEK1) [nM],Assay 5: human liver S9 intrinsic clearance value (μL/min/mg protein) ([1]; human liver S9),"half-life at 1 μM ([1]; Table 1, 1 μM test compound, 2 mg/mL S9 protein, NADPH, read-out: Liver S9 t1/2) [min]","microsomal CLint at 1 μM ([1]; Table 1, read-out: CLint (μL/min/mg protein)) [µL/min/mg]"
"C#Cc1ccc(Nc2sc3ncccc3c2C(=O)NOCCO)c(F)c1 [Ex. 1, 2-((4-ethynyl-2-fluorophenyl)amino)-N-(2-hydroxyethoxy)thieno[2,3-b]pyridine-3-carboxamide]",29,11.8,348,141,1030,,,,
"Cc1ccc2c(C(=O)NOCCO)c(Nc3ccc(I)cc3F)sc2n1 [Ex. 5, 2-((2-Fluoro-4-iodophenyl)amino)-N-(2-hydroxyethoxy)-6-methylthieno[2,3-b]pyridine-3-carboxamide]",54,6.36,,,256,,,,
"COc1ccc2c(C(=O)NOCCO)c(Nc3ccc(I)cc3F)sc2n1 [Ex. 6, 2-((2-fluoro-4-iodophenyl)amino)-N-(2-hydroxyethoxy)-6-methoxythieno[2,3-b]pyridine-3-carboxamide]",,,,,,2910,,,
"COc1cnc2sc(Nc3ccc(I)cc3F)c(C(=O)NOCCO)c2c1 [Ex. 7, 2-((2-Fluoro-4-iodophenyl)amino)-N-(2-hydroxyethoxy)-5-methoxythieno[2,3-b]pyridine-3-carboxamide]",68,5.1,,,150,,,,

# The next lines start with the values.
"half-life at 1 μM [1, 2] [min]","microsomal CLint at 1 μM [1, 3] [µL/min/mg]",GI50 (HCT116 cells) [nM],GI50 (A375 cells) [nM],IC50 (MAP2K1 (MEK1)) [nM],IC50 (MEK1) [nM],Assay 5: human liver S9 intrinsic clearance value (μL/min/mg protein) ([1]; human liver S9),"half-life at 1 μM ([1]; Table 1, 1 μM test compound, 2 mg/mL S9 protein, NADPH, read-out: Liver S9 t1/2) [min]","microsomal CLint at 1 μM ([1]; Table 1, read-out: CLint (μL/min/mg protein)) [µL/min/mg]",Compound
16,21.2,257,145,,915,,,,"CSc1ccc(Nc2sc3ncccc3c2C(=O)NOCCO)c(F)c1 [Ex. 2, 2-((2-fluoro-4-(methylthio)phenyl)amino)-N-(2-hydroxyethoxy)thieno[2,3-b]pyridine-3-carboxamide]"
,,,,74,,13.35,26,13.3,"O=C(NOCCO)c1c(Nc2ccc(I)cc2F)sc2ncccc12 [Ex. 3, 2-((2-Fluoro-4-iodophenyl)amino)-N-(2-hydroxyethoxy)thieno[2,3-b]pyridine-3-carboxamide]"
